Legend:
HCT-116 cells = assay: Cell viability (CellTiter-Glo), Experimental Example 2: CRISPR/nCas composition for cell death with or without olaparib; format: cell-based; settings: relative cell viability, HCT-116, Olaparib (+): olaparib 1 μM, sgRNA delivered as nCas9 D10A RNP, Mock = no guide RNA
Description: (§1) A total of 0.5×10^4 cells were mixed with 1 μM olaparib (AZD2281) (Selleckchem, #S1060), 1 μM rucaparib (Selleckchem, #S4948), 0.1 μM niraparib (MK-4827) (Selleckchem, #S2741), 2 μM veliparib (ABT-888) (Selleckchem, #S1004), or 10 µM iniparib (BSI-201) (Selleckchem, #S1087), and seeded onto 24-well plates.
(§2) To transfect RNPs, cells were transfected with 665 ng of the Cas protein of each Embodiment and 95 ng of the sgRNA of each Embodiment using a Lipofectamine CRISPRMAX Cas9 Transfection Reagent (Invitrogen, #CMAX00015), and then cultured for 3 days. When treated together with a PARP inhibitor, the PARP inhibitor was treated according to Experimental Example 1.6, and the RNPs were treated one day thereafter.
(§3) Cell viability was measured using a CellTiter-Glo Luminescent Cell Viability Assay (Promega, #G7571). After the transfected cells were cultured for 3 days, the cells were detached using Trypsin-EDTA (0.25%) (Gibco, #25200056). The cells were diluted in 400 μL of DMEM, followed by dispensing 100 μL of the cells, mixed with 100 μL of the CellTiter-Glo Reagent, and then incubated at room temperature for 10 minutes. Luminescence signals were measured using an Infinite 200 (Tecan) in a white opaque 96-well plate (Corning, #3917).
(§4) To evaluate the cell death effects of a CRISPR/nCas composition for cell death and a PARP inhibitor, the following experiment was conducted. Specifically, Hela cells and HCT-116 cells cultured according to Experimental Example 1.1 were treated with a PARP inhibitor (olaparib) and a CRISPR/nCas composition for cell death having the compositions shown in the following table.
(§5) The nCas protein used in this experiment was prepared according to Experimental Example 1.2, and the sgRNA used was prepared according to Experimental Example 1.3. The nCas protein and the sgRNA were administered to the cells in the form of RNPs according to Experimental Example 1.7. In the case of the PARP inhibitor, the concentrations disclosed in the above table were applied to each cell according to Experimental Example 1.6.
(§6) Thereafter, cell viability was measured according to Experimental Example 1.8.

HeLa cells = assay: as above; format: cell-based; settings: relative cell viability, sgRNA delivered as nCas9 D10A RNP, Mock = no guide RNA
Description: as §1, §2, §3, §4, §5, §6

HCT-116 tumors = assay: Tumor growth inhibition experiment in HCT-116 tumor xenograft mouse model; format: in vivo; settings: for Volume of Tumor (mm^3, Average, n = 4): HCT-116 xenograft, BALB/c nude mice, intratumoral injection every two days, eight injections, olaparib 28.5 μg
Description: For the delivery of RNP, lipid nanoparticles (LNPs) were prepared using an ethanol dilution method. All lipids (the molar ratio of C12-200/DOPE/cholesterol/DMG-PEG/DOTAP in the LNPs was fixed at 35/16/46.5/2.5/11.11) were dissolved in ethanol. RNPs (with a molar ratio of sgRNA to Cas9 protein of 1:1) were dissolved in PBS (pH 7.4). The two solutions were rapidly mixed by pipetting at a PBS-to-ethanol ratio of 3:1 (v/v) and a total lipid-to-sgRNA ratio of 20:1 (w/w), followed by incubation at room temperature for 15 minutes. For in vivo experiments, the RNP-loaded LNP formulation was purified by dialysis against PBS for 2 hours using a dialysis kit (Pur-A-Lyzer Midi Dialysis Kits, MWCO 3.5 kDa) and then concentrated using Amicon Ultra-15 centrifugal filters (MWCO 50 kDa), followed by intratumoral injection (50 μg of sgRNA-loaded LNP per injection). The above C12-200 was purchased from Cayman Chemical. The above DOPE, DOTAP, and DMG-PEG (MW 2000) were purchased from Avanti Polar Lipids. The above Cholesterol, the Pur-A-Lyzer Midi Dialysis Kit (MWCO, 3.5 kDa), and the Amicon Ultra-15 centrifugal filters (MWCO, 50 kDa) were purchased from Sigma. All chemicals were used without further purification.
Female BALB/c nude mice (5 weeks old) were purchased from Orient Bio and used for all animal experiments. The mice were handled in accordance with the guidelines of the Institutional Animal Care and Use Committee of Ulsan National Institute of Science and Technology ([…]-23-09). In the case of the xenograft model, 5×10^6 HCT116 cells stably expressing Cas9WT were suspended in 60 μL of PBS (pH 7.4) and mixed with 60 μL of Matrigel (BD Bioscience), followed by subcutaneous injection into the flank of each mouse. Tumor volume and body weight were measured every two days. Tumor volume was calculated using the following formula.
In the above formula, V represents the volume, a represents the length of the long axis, and b represents the length of the short axis.
When the tumor volume reached approximately 80 mm^3, the mice were randomly divided into multiple groups for experimentation.
To evaluate the antitumor efficacy of the administered materials in each group, mice bearing tumors established according to Experimental Example 1.11 were anesthetized with 1.5% isoflurane, and the administered material (PBS or LNP) was intratumorally injected every two days. A total of eight injections were performed over a period of 14 days, and the mice were sacrificed on day 25.
The tumor growth inhibition rate was calculated using the following formula.
Here, VDay0,treatment and VDay24,treatment represent the tumor volumes of the treatment group on day 0 and day 24, respectively, and VDay0,control and VDay24,control represent the tumor volumes of the control group administered with PBS on day 0 and day 24, respectively.
The tumor xenograft mouse model prepared according to Experimental Example 1.10 was randomly divided into four groups. Then, a PARP inhibitor and a CRISPR/nCas composition for cell death were administered according to Experimental Example 1.11 to confirm tumor growth inhibition effects. Specifically, 28.5 μg of olaparib diluted in PBS and the CRISPR/nCas composition for cell death were administered.

**Q.** What does the source list for `O=C(c1cc(Cc2n[nH]c(=O)c3ccccc23)ccc1F)N1CCN(C(=O)C2CC2)CC1` [Olaparib, olaparib]?
**A.** Average (HCT-116 cells; average of Rep 1-3): 1.05; Rep 1 (rel) (HCT-116 cells): 0.9889; Rep 2 (rel) (HCT-116 cells): 1.027; Rep 3 (rel) (HCT-116 cells): 1.131; Rep 1 (rel) (HeLa cells; Olaparib (+): olaparib 1 μM): 1.163; Rep 2 (rel) (HeLa cells; Olaparib (+): olaparib 1 μM): 0.967; Rep 3 (rel) (HeLa cells; Olaparib (+): olaparib 1 μM): 1.02; Average (HeLa cells; average of Rep 1-3, Olaparib (+): olaparib 1 μM): 1.05; Volume of Tumor (mm^3, Average, n = 4) (HCT-116 tumors; Day 0): 82.1 mm^3; Volume of Tumor (mm^3, Average, n = 4) (HCT-116 tumors; Day 2): 117.0 mm^3; Volume of Tumor (mm^3, Average, n = 4) (HCT-116 tumors; Day 4): 172.6 mm^3; Volume of Tumor (mm^3, Average, n = 4) (HCT-116 tumors; Day 6): 241.8 mm^3; Volume of Tumor (mm^3, Average, n = 4) (HCT-116 tumors; Day 8): 320.3 mm^3; Volume of Tumor (mm^3, Average, n = 4) (HCT-116 tumors; Day 10): 371.2 mm^3; Volume of Tumor (mm^3, Average, n = 4) (HCT-116 tumors; Day 12): 476.0 mm^3; Volume of Tumor (mm^3, Average, n = 4) (HCT-116 tumors; Day 14): 542.7 mm^3; Volume of Tumor (mm^3, Average, n = 4) (HCT-116 tumors; Day 16): 610.7 mm^3; Volume of Tumor (mm^3, Average, n = 4) (HCT-116 tumors; Day 18): 702.9 mm^3; Volume of Tumor (mm^3, Average, n = 4) (HCT-116 tumors; Day 20): 847.8 mm^3; Volume of Tumor (mm^3, Average, n = 4) (HCT-116 tumors; Day 22): 907.4 mm^3; Volume of Tumor (mm^3, Average, n = 4) (HCT-116 tumors; Day 24): 996.7 mm^3; Tumor Inhibition Rate (%) (HCT-116 tumors; calculated from tumor volumes on day 0 and day 24 versus PBS control, HCT-116 xenograft mice): 8.10%
